These are literature values, as cited in US20160015711A1, “CALCIUM PTERIN-6-CARBOXYLATE (CaPTERIN-6-COOH) AS A NOVEL IMMUNO-THERAPEUTIC” (SanRx Pharmaceuticals, Inc., priority 2014, published 2016).

For this series the following is noted: pH <4.

`Nc1nc([O-])c2nccnc2n1.Nc1nc([O-])c2nccnc2n1.[Ca+2]` [DCP, dipterinyl calcium pentahydrate]: the “stability under acidic conditions” value is “breaks down to form CaPterin”.
